Measured values: PubChem BioAssay (NCI)
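Step 1: Grow cells in 96-well plates. Step 2: Expose to compound for 48 hours at 5 concentrations. Step 3: Interpolate endpoints linearly; if unreached, use highest concentration. The concentration for 50% growth inhibition is given as GI50. TGI is the concentration that stops growth completely.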

Columns and labels:
Assay in all cases: NCI anticancer screen, dose series, 48 h
786-0 renal = tested on: 786-0 renal
A498 renal = tested on: A498 renal
A549 NSCLC = tested on: A549 NSCLC
ACHN renal = tested on: ACHN renal
BT-549 breast = tested on: BT-549 breast
CAKI-1 renal = tested on: CAKI-1 renal
CCRF-CEM leukemia = tested on: CCRF-CEM leukemia
COLO 205 colon = tested on: COLO 205 colon
DU-145 prostate = tested on: DU-145 prostate
EKVX NSCLC = tested on: EKVX NSCLC
HCC-2998 colon = tested on: HCC-2998 colon
HCT-116 colon = tested on: HCT-116 colon
HCT-15 colon = tested on: HCT-15 colon
HOP-62 NSCLC = tested on: HOP-62 NSCLC
HOP-92 NSCLC = tested on: HOP-92 NSCLC
HS 578T breast = tested on: HS 578T breast
HT29 colon = tested on: HT29 colon
IGROV1 ovarian = tested on: IGROV1 ovarian
KM12 colon = tested on: KM12 colon
LOX IMVI melanoma = tested on: LOX IMVI melanoma
M14 melanoma = tested on: M14 melanoma
MALME-3M melanoma = tested on: MALME-3M melanoma
MCF7 breast = tested on: MCF7 breast
MDA-MB-231 breast = tested on: MDA-MB-231 breast
MDA-MB-435 = tested on: MDA-MB-435
NCI-H226 lung = tested on: NCI-H226 lung
NCI-H460 lung = tested on: NCI-H460 lung
NCI-H522 lung = tested on: NCI-H522 lung
NCI/ADR-RES ovarian = tested on: NCI/ADR-RES ovarian
OVCAR-3 ovarian = tested on: OVCAR-3 ovarian
OVCAR-4 ovarian = tested on: OVCAR-4 ovarian
OVCAR-5 ovarian = tested on: OVCAR-5 ovarian
OVCAR-8 ovarian = tested on: OVCAR-8 ovarian
PC-3 prostate = tested on: PC-3 prostate
RPMI-8226 leukemia = tested on: RPMI-8226 leukemia
RXF 393 renal = tested on: RXF 393 renal
SF-268 CNS = tested on: SF-268 CNS
SF-295 CNS = tested on: SF-295 CNS
SF-539 CNS = tested on: SF-539 CNS
SK-MEL-2 melanoma = tested on: SK-MEL-2 melanoma
SK-MEL-28 melanoma = tested on: SK-MEL-28 melanoma
SK-MEL-5 melanoma = tested on: SK-MEL-5 melanoma
SK-OV-3 ovarian = tested on: SK-OV-3 ovarian
SN12C renal = tested on: SN12C renal
SNB-19 CNS = tested on: SNB-19 CNS
SNB-75 CNS = tested on: SNB-75 CNS
SW-620 colon = tested on: SW-620 colon
T-47D breast = tested on: T-47D breast
TK-10 renal = tested on: TK-10 renal
U251 CNS = tested on: U251 CNS
UACC-257 melanoma = tested on: UACC-257 melanoma
UACC-62 melanoma = tested on: UACC-62 melanoma
UO-31 renal = tested on: UO-31 renal

`Clc1ccc2oc3c(NCCCn4ccnc4)c4ccccc4nc3c2c1` gave a GI50 (786-0 renal) of 16.3 µM, a TGI (786-0 renal) greater than 100 µM and a GI50 (A498 renal) greater than 100 µM. For the same compound, the TGI (A498 renal) was greater than 100 µM, the GI50 (A549 NSCLC) was 34.6 µM and the TGI (A549 NSCLC) was greater than 100 µM. It also gave a GI50 (ACHN renal) of 4.84 µM, a TGI (ACHN renal) greater than 100 µM and a GI50 (BT-549 breast) of 16.9 µM. For the same compound, the TGI (BT-549 breast) was 51.4 µM, the GI50 (CAKI-1 renal) was 11.4 µM and the TGI (CAKI-1 renal) was greater than 100 µM. The GI50 (CCRF-CEM leukemia) was 8.66 µM, the TGI (CCRF-CEM leukemia) was greater than 100 µM and the GI50 (COLO 205 colon) was 10.9 µM. For the same compound, the TGI (COLO 205 colon) was 37.7 µM, the GI50 (DU-145 prostate) was 23.3 µM and the TGI (DU-145 prostate) was greater than 100 µM. For the same compound, the GI50 (EKVX NSCLC) was 51.7 µM, the TGI (EKVX NSCLC) was greater than 100 µM and the GI50 (HCC-2998 colon) was 12.7 µM. It also gave a TGI (HCC-2998 colon) greater than 100 µM, a GI50 (HCT-116 colon) of 4.48 µM and a TGI (HCT-116 colon) of 31.3 µM. For the same compound, the GI50 (HCT-15 colon) was 11.7 µM, the TGI (HCT-15 colon) was greater than 100 µM and the GI50 (HOP-62 NSCLC) was 16.6 µM. It also gave a TGI (HOP-62 NSCLC) greater than 100 µM, a GI50 (HOP-92 NSCLC) of 1.78 µM and a TGI (HOP-92 NSCLC) of 22.7 µM. It also gave a GI50 (HS 578T breast) of 22.1 µM, a TGI (HS 578T breast) greater than 100 µM and a GI50 (HT29 colon) of 6.14 µM. The TGI (HT29 colon) was 23.6 µM, the GI50 (IGROV1 ovarian) was 21.9 µM and the TGI (IGROV1 ovarian) was greater than 100 µM. For the same compound, the GI50 (KM12 colon) was 15.4 µM, the TGI (KM12 colon) was greater than 100 µM and the GI50 (LOX IMVI melanoma) was 10.4 µM. The TGI (LOX IMVI melanoma) was 39.1 µM, the GI50 (M14 melanoma) was 28 µM and the TGI (M14 melanoma) was greater than 100 µM. It also gave a GI50 (MALME-3M melanoma) of 39.2 µM, a TGI (MALME-3M melanoma) greater than 100 µM and a GI50 (MCF7 breast) of 16.1 µM. For the same compound, the TGI (MCF7 breast) was greater than 100 µM, the GI50 (MDA-MB-231 breast) was 17.5 µM and the TGI (MDA-MB-231 breast) was greater than 100 µM. It also gave a GI50 (MDA-MB-435) of 25.9 µM, a TGI (MDA-MB-435) greater than 100 µM and a GI50 (NCI-H226 lung) of 26.8 µM. It also gave a TGI (NCI-H226 lung) greater than 100 µM, a GI50 (NCI-H460 lung) of 5.26 µM and a TGI (NCI-H460 lung) of 21.4 µM. It also gave a GI50 (NCI-H522 lung) of 15 µM, a TGI (NCI-H522 lung) greater than 100 µM and a GI50 (NCI/ADR-RES ovarian) of 7.77 µM. For the same compound, the TGI (NCI/ADR-RES ovarian) was greater than 100 µM, the GI50 (OVCAR-3 ovarian) was 23.8 µM and the TGI (OVCAR-3 ovarian) was greater than 100 µM. The GI50 (OVCAR-4 ovarian) was 11.8 µM, the TGI (OVCAR-4 ovarian) was 41.2 µM and the GI50 (OVCAR-5 ovarian) was 24.9 µM. For the same compound, the TGI (OVCAR-5 ovarian) was greater than 100 µM, the GI50 (OVCAR-8 ovarian) was 12.7 µM and the TGI (OVCAR-8 ovarian) was greater than 100 µM. The GI50 (PC-3 prostate) was 24.9 µM, the TGI (PC-3 prostate) was greater than 100 µM and the GI50 (RPMI-8226 leukemia) was 16.5 µM. The TGI (RPMI-8226 leukemia) was 55.9 µM, the GI50 (RXF 393 renal) was 4.65 µM and the TGI (RXF 393 renal) was 23 µM. The GI50 (SF-268 CNS) was 15.2 µM, the TGI (SF-268 CNS) was greater than 100 µM and the GI50 (SF-295 CNS) was 17.9 µM. It also gave a TGI (SF-295 CNS) of 66.6 µM, a GI50 (SF-539 CNS) of 12.8 µM and a TGI (SF-539 CNS) of 28.2 µM. It also gave a GI50 (SK-MEL-2 melanoma) greater than 100 µM, a TGI (SK-MEL-2 melanoma) greater than 100 µM and a GI50 (SK-MEL-28 melanoma) of 34.4 µM. For the same compound, the TGI (SK-MEL-28 melanoma) was greater than 100 µM, the GI50 (SK-MEL-5 melanoma) was 80.6 µM and the TGI (SK-MEL-5 melanoma) was greater than 100 µM. For the same compound, the GI50 (SK-OV-3 ovarian) was greater than 100 µM, the TGI (SK-OV-3 ovarian) was greater than 100 µM and the GI50 (SN12C renal) was 9.75 µM. For the same compound, the TGI (SN12C renal) was greater than 100 µM, the GI50 (SNB-19 CNS) was 27.8 µM and the TGI (SNB-19 CNS) was greater than 100 µM. The GI50 (SNB-75 CNS) was 20.4 µM, the TGI (SNB-75 CNS) was greater than 100 µM and the GI50 (SW-620 colon) was 5.13 µM. It also gave a TGI (SW-620 colon) greater than 100 µM, a GI50 (T-47D breast) of 36 µM and a TGI (T-47D breast) greater than 100 µM. For the same compound, the GI50 (TK-10 renal) was 79 µM, the TGI (TK-10 renal) was greater than 100 µM and the GI50 (U251 CNS) was 26.5 µM. For the same compound, the TGI (U251 CNS) was greater than 100 µM, the GI50 (UACC-257 melanoma) was 39.9 µM and the TGI (UACC-257 melanoma) was greater than 100 µM. For the same compound, the GI50 (UACC-62 melanoma) was 19.2 µM, the TGI (UACC-62 melanoma) was 45.5 µM and the GI50 (UO-31 renal) was 13.2 µM. For the same compound, the TGI (UO-31 renal) was 67.4 µM.
